Laboratory results taken from ChEMBL document CHEMBL5465560, “Selectivity Literature for EUbOPEN Chemogenomic Library” (2024).

What was measured:
[1] = target: Myosin light chain kinase 2, skeletal/cardiac muscle (Homo sapiens) (UniProt Q9H1R3); assay: Selectivity interaction (KinomeScan (DiscoverX)) EUB0001049a MYLK2; conditions: at 1 µM
[2] = target: Serine/threonine-protein kinase WNK1 (Homo sapiens) (UniProt Q9H4A3); assay: Selectivity interaction (ActivX KiNativ screen (kinase selectivity in THP-1 cell lysates)) EUB0000639a WNK1; type: subcellular; conditions: lysate, at 0.04 µM
Serine/threonine-protein kinase WNK1 (Homo sapiens), sequence (Q9H4A3 whole entry, looked up): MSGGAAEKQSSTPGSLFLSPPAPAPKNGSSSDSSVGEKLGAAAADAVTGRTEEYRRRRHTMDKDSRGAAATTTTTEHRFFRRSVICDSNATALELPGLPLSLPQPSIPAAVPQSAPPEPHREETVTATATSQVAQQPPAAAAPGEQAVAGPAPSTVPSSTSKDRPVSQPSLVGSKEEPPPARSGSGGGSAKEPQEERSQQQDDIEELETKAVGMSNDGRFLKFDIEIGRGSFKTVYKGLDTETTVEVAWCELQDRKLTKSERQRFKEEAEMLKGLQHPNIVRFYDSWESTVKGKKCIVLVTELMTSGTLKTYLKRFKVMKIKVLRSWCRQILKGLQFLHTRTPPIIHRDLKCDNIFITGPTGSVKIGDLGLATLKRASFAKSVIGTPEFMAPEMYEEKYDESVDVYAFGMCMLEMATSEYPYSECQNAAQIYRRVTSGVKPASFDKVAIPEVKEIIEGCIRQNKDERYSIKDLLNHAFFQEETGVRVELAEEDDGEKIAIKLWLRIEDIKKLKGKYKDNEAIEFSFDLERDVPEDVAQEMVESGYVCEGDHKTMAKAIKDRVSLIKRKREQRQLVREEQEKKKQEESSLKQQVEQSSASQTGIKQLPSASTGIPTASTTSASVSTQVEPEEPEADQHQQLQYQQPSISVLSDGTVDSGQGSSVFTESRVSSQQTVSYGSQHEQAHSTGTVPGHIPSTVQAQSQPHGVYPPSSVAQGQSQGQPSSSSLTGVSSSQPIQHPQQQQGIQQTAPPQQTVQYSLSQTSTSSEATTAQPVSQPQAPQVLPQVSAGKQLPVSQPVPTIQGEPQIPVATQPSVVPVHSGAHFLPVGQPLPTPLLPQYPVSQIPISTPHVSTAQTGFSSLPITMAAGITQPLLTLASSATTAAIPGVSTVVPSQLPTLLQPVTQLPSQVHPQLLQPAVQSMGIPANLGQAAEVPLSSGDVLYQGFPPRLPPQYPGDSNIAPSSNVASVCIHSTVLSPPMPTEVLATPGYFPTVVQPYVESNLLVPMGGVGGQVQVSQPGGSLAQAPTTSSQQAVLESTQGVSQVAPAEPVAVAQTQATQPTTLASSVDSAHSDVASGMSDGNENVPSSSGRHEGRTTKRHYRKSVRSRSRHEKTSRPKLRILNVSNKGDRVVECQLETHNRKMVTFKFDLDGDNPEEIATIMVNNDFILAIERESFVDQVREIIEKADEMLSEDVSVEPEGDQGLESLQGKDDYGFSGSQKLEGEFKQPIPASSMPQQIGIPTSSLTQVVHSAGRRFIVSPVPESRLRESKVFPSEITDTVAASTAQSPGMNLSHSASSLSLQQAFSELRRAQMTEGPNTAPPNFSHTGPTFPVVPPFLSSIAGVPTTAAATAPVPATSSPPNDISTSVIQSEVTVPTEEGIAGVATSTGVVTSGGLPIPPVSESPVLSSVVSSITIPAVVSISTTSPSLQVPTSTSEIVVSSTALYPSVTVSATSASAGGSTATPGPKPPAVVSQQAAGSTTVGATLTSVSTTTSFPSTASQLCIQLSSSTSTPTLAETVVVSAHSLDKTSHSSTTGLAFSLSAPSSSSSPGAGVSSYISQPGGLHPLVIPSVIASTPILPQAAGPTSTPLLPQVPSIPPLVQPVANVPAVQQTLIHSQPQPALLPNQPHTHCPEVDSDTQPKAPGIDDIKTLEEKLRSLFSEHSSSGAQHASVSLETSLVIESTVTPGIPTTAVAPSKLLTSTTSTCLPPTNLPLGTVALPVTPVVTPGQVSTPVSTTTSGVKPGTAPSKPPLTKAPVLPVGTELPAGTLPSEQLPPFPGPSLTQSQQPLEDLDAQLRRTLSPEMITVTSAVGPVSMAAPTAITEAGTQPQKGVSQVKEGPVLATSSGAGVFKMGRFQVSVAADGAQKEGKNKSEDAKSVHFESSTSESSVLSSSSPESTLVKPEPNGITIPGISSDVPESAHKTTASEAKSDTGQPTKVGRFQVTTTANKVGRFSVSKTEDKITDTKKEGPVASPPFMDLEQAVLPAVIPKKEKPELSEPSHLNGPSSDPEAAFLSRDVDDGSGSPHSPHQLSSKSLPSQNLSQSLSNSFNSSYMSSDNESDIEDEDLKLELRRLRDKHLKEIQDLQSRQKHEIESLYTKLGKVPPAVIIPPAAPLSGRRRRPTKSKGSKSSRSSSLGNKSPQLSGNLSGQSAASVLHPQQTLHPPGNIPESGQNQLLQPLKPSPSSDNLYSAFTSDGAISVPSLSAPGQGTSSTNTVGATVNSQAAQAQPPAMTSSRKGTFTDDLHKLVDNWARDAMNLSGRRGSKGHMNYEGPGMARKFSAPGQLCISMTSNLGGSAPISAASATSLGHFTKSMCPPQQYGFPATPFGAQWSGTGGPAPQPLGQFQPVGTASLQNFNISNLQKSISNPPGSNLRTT

[3] = target: Ribosomal protein S6 kinase alpha-2 (Homo sapiens) (UniProt Q15349); assay: Selectivity interaction (Ambit KINOMEscan and KiNATiv profiling in Jurkat cells) EUB0000090b RPS6KA2; type: cell-based; conditions: at 1 µM
Ribosomal protein S6 kinase alpha-2 (Homo sapiens), sequence (Q15349 whole entry): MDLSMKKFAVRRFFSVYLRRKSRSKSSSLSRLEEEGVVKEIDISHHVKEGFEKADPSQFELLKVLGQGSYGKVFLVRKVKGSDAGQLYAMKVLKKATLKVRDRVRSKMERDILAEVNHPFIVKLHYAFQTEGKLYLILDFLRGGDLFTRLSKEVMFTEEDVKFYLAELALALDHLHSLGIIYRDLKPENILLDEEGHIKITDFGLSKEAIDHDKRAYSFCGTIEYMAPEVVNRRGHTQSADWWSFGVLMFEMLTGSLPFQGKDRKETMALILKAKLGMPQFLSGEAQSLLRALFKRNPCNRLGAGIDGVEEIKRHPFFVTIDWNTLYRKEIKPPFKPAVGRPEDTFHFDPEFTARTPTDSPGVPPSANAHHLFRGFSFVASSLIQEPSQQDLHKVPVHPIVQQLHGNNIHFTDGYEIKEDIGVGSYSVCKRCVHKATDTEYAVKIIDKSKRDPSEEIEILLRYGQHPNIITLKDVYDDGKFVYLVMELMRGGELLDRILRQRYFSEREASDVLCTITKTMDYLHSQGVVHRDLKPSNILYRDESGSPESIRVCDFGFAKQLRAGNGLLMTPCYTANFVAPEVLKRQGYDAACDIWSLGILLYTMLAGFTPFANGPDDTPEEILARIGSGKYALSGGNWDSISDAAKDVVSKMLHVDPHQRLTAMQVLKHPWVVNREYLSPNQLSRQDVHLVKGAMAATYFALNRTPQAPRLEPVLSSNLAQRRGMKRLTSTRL

[4] = target: T1, Serine/threonine-protein kinase DCLK2 (Homo sapiens) (UniProt Q8N568); conditions: at 10 µM
T1 sequence (whole entry): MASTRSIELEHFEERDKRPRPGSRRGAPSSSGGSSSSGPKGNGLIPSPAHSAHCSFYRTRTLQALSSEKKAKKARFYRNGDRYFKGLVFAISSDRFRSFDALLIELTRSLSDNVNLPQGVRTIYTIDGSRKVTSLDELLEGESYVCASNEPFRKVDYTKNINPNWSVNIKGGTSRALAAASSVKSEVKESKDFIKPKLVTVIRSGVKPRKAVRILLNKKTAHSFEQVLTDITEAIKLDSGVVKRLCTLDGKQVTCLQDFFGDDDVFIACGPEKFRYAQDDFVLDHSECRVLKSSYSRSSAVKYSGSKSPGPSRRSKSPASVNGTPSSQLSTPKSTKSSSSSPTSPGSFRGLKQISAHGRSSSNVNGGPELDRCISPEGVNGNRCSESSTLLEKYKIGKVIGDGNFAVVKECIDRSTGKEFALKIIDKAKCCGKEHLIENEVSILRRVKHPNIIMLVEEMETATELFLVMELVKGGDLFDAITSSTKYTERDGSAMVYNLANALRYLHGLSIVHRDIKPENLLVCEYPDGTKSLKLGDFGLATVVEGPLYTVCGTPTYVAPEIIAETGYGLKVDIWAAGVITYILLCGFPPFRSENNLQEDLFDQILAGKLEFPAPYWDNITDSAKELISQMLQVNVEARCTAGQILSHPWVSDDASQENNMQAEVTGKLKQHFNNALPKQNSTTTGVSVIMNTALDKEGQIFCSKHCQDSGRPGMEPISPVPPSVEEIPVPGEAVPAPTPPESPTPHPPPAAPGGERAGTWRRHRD

[5] = target: Mitogen-activated protein kinase kinase kinase kinase 5 (Homo sapiens) (UniProt Q9Y4K4); assay: Selectivity interaction (ActivX KiNativ screen (ex vivo kinase selectivity in human PBMCs)) EUB0001619a MAP4K5; type: cell-based; conditions: PBMC, at 1 µM
Mitogen-activated protein kinase kinase kinase kinase 5 (Homo sapiens), sequence (Q9Y4K4 whole entry, looked up): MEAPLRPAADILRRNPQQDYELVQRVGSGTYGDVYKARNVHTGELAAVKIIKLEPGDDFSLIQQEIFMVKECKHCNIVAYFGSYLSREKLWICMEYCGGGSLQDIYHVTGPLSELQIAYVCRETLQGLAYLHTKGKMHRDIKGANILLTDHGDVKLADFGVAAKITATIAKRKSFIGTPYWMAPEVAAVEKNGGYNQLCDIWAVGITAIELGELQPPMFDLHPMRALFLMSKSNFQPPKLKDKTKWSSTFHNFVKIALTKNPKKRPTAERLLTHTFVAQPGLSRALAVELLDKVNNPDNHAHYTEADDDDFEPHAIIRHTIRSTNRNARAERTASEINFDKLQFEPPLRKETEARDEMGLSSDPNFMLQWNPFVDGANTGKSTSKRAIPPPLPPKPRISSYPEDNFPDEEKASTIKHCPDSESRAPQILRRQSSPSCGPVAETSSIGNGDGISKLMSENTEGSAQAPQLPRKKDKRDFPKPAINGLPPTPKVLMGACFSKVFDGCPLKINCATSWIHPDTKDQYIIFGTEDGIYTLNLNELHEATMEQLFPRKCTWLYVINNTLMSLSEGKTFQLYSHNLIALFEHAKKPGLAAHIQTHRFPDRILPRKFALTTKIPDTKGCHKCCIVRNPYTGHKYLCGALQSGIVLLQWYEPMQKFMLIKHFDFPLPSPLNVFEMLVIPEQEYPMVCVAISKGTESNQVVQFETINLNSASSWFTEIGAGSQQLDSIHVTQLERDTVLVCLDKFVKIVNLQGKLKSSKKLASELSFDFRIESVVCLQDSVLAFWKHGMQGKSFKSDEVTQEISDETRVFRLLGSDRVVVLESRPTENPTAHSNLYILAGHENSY

[6] = target: Calcium/calmodulin-dependent protein kinase type II subunit alpha (Homo sapiens, UniProt Q9UQM7); assay: Selectivity interaction (Upstate Kinase Profiler service (Millipore)) EUB0000056c CAMK2A; conditions: at 1 µM
Calcium/calmodulin-dependent protein kinase type II subunit alpha, sequence (Q9UQM7 whole entry): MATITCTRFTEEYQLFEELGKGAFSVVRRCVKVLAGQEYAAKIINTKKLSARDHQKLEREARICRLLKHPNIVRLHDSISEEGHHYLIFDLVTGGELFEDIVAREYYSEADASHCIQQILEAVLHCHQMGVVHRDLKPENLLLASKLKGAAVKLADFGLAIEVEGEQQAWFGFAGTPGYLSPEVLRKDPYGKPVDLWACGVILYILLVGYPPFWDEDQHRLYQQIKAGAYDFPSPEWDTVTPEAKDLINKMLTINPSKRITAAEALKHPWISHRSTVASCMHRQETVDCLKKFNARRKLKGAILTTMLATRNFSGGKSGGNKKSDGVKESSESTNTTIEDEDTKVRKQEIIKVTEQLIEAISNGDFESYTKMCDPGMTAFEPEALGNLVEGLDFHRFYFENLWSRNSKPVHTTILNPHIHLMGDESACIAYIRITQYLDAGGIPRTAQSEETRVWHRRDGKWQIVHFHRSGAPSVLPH

[7] = target: T2, Mitogen-activated protein kinase kinase kinase 15 (Homo sapiens) (UniProt Q6ZN16); assay: Selectivity interaction (KinomeScan (DiscoverX)) EUB0000607a MAP3K15; conditions: at 10 µM
T2 sequence (whole entry): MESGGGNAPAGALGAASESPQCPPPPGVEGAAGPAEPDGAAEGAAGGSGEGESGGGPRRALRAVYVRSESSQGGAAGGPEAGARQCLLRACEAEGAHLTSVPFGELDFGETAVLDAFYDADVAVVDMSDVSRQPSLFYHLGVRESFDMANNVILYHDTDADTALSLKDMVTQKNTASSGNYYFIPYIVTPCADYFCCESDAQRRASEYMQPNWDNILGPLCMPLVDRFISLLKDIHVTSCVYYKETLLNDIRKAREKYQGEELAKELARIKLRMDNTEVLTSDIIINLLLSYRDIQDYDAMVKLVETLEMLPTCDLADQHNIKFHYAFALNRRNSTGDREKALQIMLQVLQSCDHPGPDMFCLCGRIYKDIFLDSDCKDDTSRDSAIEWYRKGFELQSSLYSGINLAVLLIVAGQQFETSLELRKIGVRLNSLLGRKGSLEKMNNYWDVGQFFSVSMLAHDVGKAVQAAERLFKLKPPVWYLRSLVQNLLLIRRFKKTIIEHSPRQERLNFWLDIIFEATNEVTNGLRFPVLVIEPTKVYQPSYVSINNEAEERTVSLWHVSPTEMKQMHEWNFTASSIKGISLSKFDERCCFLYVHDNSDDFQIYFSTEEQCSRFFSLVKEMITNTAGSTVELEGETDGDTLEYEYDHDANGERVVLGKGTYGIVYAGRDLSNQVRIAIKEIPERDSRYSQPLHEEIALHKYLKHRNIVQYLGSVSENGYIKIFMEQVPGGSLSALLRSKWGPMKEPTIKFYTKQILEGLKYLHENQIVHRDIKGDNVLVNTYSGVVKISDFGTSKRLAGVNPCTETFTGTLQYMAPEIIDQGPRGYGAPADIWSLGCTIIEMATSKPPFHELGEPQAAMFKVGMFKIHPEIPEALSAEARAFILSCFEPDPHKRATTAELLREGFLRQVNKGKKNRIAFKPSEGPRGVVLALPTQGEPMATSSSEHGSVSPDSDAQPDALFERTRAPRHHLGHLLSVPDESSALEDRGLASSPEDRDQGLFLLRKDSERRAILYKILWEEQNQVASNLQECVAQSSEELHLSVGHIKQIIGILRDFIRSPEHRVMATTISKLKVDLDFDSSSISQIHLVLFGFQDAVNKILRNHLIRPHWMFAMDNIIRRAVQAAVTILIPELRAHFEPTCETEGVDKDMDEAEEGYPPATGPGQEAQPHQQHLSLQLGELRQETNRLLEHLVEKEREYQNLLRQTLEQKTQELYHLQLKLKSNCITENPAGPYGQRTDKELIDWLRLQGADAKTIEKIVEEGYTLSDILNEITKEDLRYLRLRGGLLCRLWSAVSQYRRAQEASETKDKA

Myosin light chain kinase 2, skeletal/cardiac muscle (Homo sapiens), sequence (Q9H1R3 whole entry): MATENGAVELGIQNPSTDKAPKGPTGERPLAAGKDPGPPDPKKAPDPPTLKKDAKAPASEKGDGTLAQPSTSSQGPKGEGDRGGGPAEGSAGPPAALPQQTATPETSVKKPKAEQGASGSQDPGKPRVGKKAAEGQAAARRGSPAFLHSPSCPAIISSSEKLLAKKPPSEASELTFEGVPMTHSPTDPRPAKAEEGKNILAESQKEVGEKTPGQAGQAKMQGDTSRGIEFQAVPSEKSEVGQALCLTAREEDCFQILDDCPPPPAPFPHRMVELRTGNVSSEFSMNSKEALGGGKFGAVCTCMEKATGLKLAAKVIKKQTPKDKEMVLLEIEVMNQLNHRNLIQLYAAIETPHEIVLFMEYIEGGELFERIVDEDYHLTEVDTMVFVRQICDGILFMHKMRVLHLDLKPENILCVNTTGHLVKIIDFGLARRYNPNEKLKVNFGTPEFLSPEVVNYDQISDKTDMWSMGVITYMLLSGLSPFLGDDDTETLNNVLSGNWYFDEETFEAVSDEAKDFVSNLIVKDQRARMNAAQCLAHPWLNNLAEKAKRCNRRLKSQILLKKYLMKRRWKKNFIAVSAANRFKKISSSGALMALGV

## COc1cc(Nc2nc(C)cc(-c3cnn4nc(OC)ccc34)n2)cc(C(F)(F)F)c1
[1]
  % of control: 100%

## CC[C@@H]1[C@H](F)C(=O)N[C@@H]1COc1nccc2cc(C(N)=O)c(OC)cc12 [ZIMLOVISERTIB]
[2]
  % of inhibition: -7.4%

## CN(C)C/C=C/C(=O)Nc1ccc(C(=O)N2CCCC(Nc3ncc(Cl)c(-c4c[nH]c5ccccc45)n3)C2)cc1 (configuration not stated)
[3]
  % of control: 55%

## Cc1cc([C@@H](C)Nc2ccccc2C(=O)O)c2nc(N3CCOCC3)cc(=O)n2c1 [AZD-6482]
[4]
  % of control: 100%

## N#Cc1cccc(-c2c[nH]c3ncnc(N4CCOCC4)c23)c1
[5]
  % of inhibition: -13%

## Cc1ccc(-c2ccc3c(ccc4sc5c(c43)NC[C@@H](C)NC5=O)n2)cn1
[6]
  % of inhibition: 87%

## CNC(=O)Nc1ccc(-c2nc(N3CC4CCC(C3)O4)c3cnn(C4CCC5(CC4)OCCO5)c3n2)cc1
[7]
  % of control: 100%
